Converted amounts (≈) assume the structure as drawn.
Key:
Test in all cases: ≥ marks a high value that may be exact or a test limit, other limits are often not marked, values filed in µg/mL are converted to µM
Escherichia coli 078 = test system: Escherichia coli 078
[1] = test system: Escherichia coli ATCC 25922
Escherichia coli UB1005 = test system: Escherichia coli UB1005
[2] = test system: Lacticaseibacillus rhamnosus 7469
[3] = test system: Pseudomonas aeruginosa ATCC 27853
[4] = test system: Salmonella enterica subsp. enterica serovar Pullorum ATCC 7913
[5] = test system: Salmonella enterica subsp. enterica serovar Typhimurium ATCC 14028
[6] = test system: Salmonella enterica subsp. enterica serovar Typhimurium C77-31
[7] = test system: Staphylococcus aureus ATCC 25923
[8] = test system: Staphylococcus aureus ATCC 29213
[9] = test system: Staphylococcus epidermidis ATCC 12228
[10] = test system: Streptococcus agalactiae CICC 10465
Streptococcus agalactiae = test system: Streptococcus agalactiae
[11] = test system: Streptococcus thermophilus YM-C
[12] = test system: Candida albicans FRR 5580
[13] = test system: Pseudomonas aeruginosa ATCC 9027
Staphylococcus aureus = test system: Staphylococcus aureus
Phytophthora nicotianae = test system: Phytophthora nicotianae
Candida albicans = test system: Candida albicans
[14] = test system: Staphylococcus aureus ATCC 49476
Staphylococcus aureus MR = test system: Staphylococcus aureus MR
[15] = test system: Mannheimia haemolytica 82-25
Escherichia coli BL21 = test system: Escherichia coli BL21
[16] = test system: Pseudomonas aeruginosa PAO1
[17] = test system: Staphylococcus aureus USA 300
[18] = test system: Streptococcus pyogenes M1T1 5448
Acinetobacter baumannii = test system: Acinetobacter baumannii
[19] = test system: Klebsiella pneumoniae ATCC 700603
Klebsiella pneumoniae = test system: Klebsiella pneumoniae
[20] = test system: Staphylococcus aureus ATCC 29737
[21] = test system: Acinetobacter baumannii ATCC 17987
[22] = test system: Acinetobacter baumannii AYE
[23] = test system: Enterococcus faecalis NCTC 12201
[24] = test system: Enterococcus faecalis NCTC 12204
[25] = test system: Enterococcus faecalis NCTC 775
[26] = test system: Escherichia coli NCTC 12923
Klebsiella pneumoniae M6 = test system: Klebsiella pneumoniae M6
[27] = test system: Klebsiella pneumoniae NCTC 13368
[28] = test system: Pseudomonas aeruginosa NCTC 13437
[29] = test system: Pseudomonas syringae pv. tomato
Staphylococcus aureus 15 = test system: Staphylococcus aureus 15
[30] = test system: Staphylococcus aureus NCTC 9144
[31] = test system: Xanthomonas axonopodis pv. phaseoli

## CC[C@H](C)[C@H](NC(=O)[C@H](CC(C)C)NC(=O)[C@@H](NC(=O)[C@@H](N)CC(=O)O)[C@@H](C)CC)C(=O)N[C@H](C(=O)N[C@H](C(=O)NCC(=O)NCC(N)=O)C(C)C)[C@@H](C)CC [DILIIVGG]
Escherichia coli 078
  MIC: ≥ 64 µM
[1]
  MIC: > 64 µM
Escherichia coli UB1005
  MIC: ≥ 64 µM
[2]
  MIC: ≥ 64 µM
[3]
  MIC: > 64 µM
[4]
  MIC: ≥ 64 µM
[5]
  MIC: > 64 µM
[6]
  MIC: ≥ 64 µM
[7]
  MIC: > 64 µM
[8]
  MIC: > 64 µM
[9]
  MIC: > 64 µM
[10]
  MIC: ≥ 64 µM
Streptococcus agalactiae
  MIC: ≥ 64 µM
[11]
  MIC: ≥ 64 µM

## NCCCC[C@H](NC(=O)[C@H](Cc1c[nH]c2ccccc12)NC(=O)[C@H](Cc1c[nH]c2ccccc12)NC(=O)[C@H](CCCCN)NC(=O)[C@H](Cc1c[nH]c2ccccc12)NC(=O)[C@H](Cc1c[nH]c2ccccc12)NC(=O)[C@H](CCCN=C(N)N)NC(=O)[C@H](Cc1c[nH]c2ccccc12)NC(=O)[C@H](Cc1c[nH]c2ccccc12)NC(=O)[C@H](CCCN=C(N)N)NC(=O)[C@H](CCCCN)NC(=O)[C@@H](N)CCCN=C(N)N)C(=O)N[C@@H](CCCN=C(N)N)C(N)=O [RKRWWRWWKWWKR]
[12]
  MIC: 29.8 µM (≈ 64 µg/mL)
[1]
  MIC: 7.46 µM (≈ 16 µg/mL)
[13]
  MIC: 7.46 µM (≈ 16 µg/mL)
[7]
  MIC: 7.46 µM (≈ 16 µg/mL)
Staphylococcus aureus
  MIC: 5.28 µM (≈ 11.3 µg/mL)

## CC[C@H](C)[C@H](NC(=O)CN)C(=O)N[C@@H](Cc1ccccc1)C(=O)N[C@@H](CO)C(=O)N[C@@H](CCCCN)C(=O)N[C@@H](CC(C)C)C(=O)N[C@@H](C)C(=O)NCC(=O)N[C@@H](CCCCN)C(=O)N[C@@H](CCCCN)C(=O)N[C@@H](CC(C)C)C(=O)N[C@@H](CCCCN)C(=O)N[C@@H](CC(N)=O)C(=O)N[C@@H](CC(C)C)C(=O)N[C@@H](CC(C)C)C(=O)N[C@H](C(=O)N[C@@H](CO)C(=O)NCC(=O)N[C@@H](CC(C)C)C(N)=O)[C@@H](C)CC [GIFSKLAGKKLKNLLISGL]
Phytophthora nicotianae
  MIC: 12 µM (≈ 24 µg/mL)

## CC[C@H](C)[C@H](NC(=O)[C@H](CC(C)C)NC(=O)[C@H](CCCN=C(N)N)NC(=O)[C@H](Cc1cnc[nH]1)NC(=O)[C@H](CCC(=O)O)NC(=O)[C@H](C)NC(=O)[C@H](CCCCN)NC(=O)CNC(=O)[C@H](C)NC(=O)[C@H](CO)NC(=O)[C@H](Cc1ccccc1)NC(=O)[C@H](CC(C)C)NC(=O)CNC(=O)CNC(=O)[C@@H](NC(=O)[C@@H](NC(=O)[C@H](Cc1cnc[nH]1)NC(=O)[C@H](Cc1cnc[nH]1)NC(=O)[C@@H](NC(=O)[C@@H](N)Cc1ccccc1)[C@@H](C)CC)[C@@H](C)CC)[C@@H](C)CC)C(=O)N[C@@H](CCCN=C(N)N)C(=O)N[C@@H](CCCN=C(N)N)C(=O)N[C@@H](CCCN=C(N)N)C(=O)N[C@@H](CCCN=C(N)N)C(=O)N[C@@H](CCCN=C(N)N)C(=O)O [FIHHIIGGLFSAGKAEHRLIRRRRR]
Candida albicans
  MIC: 42.7 µM (≈ 128 µg/mL)
[3]
  MIC: > 171 µM
[14]
  MIC: ≥ 171 µM
Staphylococcus aureus MR
  MIC: ≥ 171 µM

## C[C@H](N)C(=O)N[C@@H](C)C(=O)N[C@@H](CC(=O)O)C(=O)N[C@@H](CC(=O)O)C(=O)N[C@@H](CC(=O)O)C(=O)N[C@@H](CC(=O)O)C(=O)N[C@@H](CC(=O)O)C(=O)O [AADDDDD]
[15]
  MIC: 30 µM (≈ 22.1 µg/mL)

## CC[C@H](C)[C@H](NC(=O)[C@H](CCCN=C(N)N)NC(=O)[C@H](CCCCN)NC(=O)[C@@H](NC(=O)[C@H](CCCCN)NC(=O)[C@H](CCCN=C(N)N)NC(=O)[C@@H](NC(=O)[C@H](Cc1ccc(O)cc1)NC(=O)[C@H](CCCN=C(N)N)NC(=O)[C@H](CCCN=C(N)N)NC(=O)[C@H](CC(C)C)NC(=O)[C@H](CCC(=O)O)NC(=O)[C@H](CCCCN)NC(=O)[C@H](C)NC(=O)[C@@H](NC(=O)[C@H](CCCN=C(N)N)NC(=O)[C@H](CC(N)=O)NC(=O)[C@@H](NC(=O)CNC(=O)[C@H](C)N)[C@@H](C)O)[C@@H](C)CC)[C@@H](C)CC)C(C)C)C(=O)N[C@@H](C)C(=O)N[C@@H](CCCN=C(N)N)C(=O)N[C@@H](CCCCN)C(=O)N[C@@H](C)C(=O)N[C@@H](Cc1c[nH]c2ccccc12)C(=O)O [AGTNRIAKELRRYIRKVKRIARKAW]
Escherichia coli BL21
  MIC: 0.5 µM (≈ 1.53 µg/mL)
[16]
  MIC: 16 µM (≈ 48.9 µg/mL)
[17]
  MIC: 16 µM (≈ 48.9 µg/mL)
[18]
  MIC: 1 µM (≈ 3.05 µg/mL)

## CC(C)C[C@H](NC(=O)[C@H](Cc1c[nH]c2ccccc12)NC(=O)[C@@H](NC(=O)[C@H](CC(C)C)NC(=O)[C@@H]1CCCN1C(=O)[C@@H](N)Cc1ccccc1)[C@@H](C)O)C(=O)N[C@@H](CCCCN)C(=O)N[C@@H](Cc1c[nH]c2ccccc12)C(=O)N[C@@H](Cc1c[nH]c2ccccc12)C(=O)N[C@@H](CCCCN)C(=O)N[C@@H](Cc1c[nH]c2ccccc12)C(=O)N[C@@H](CCCCN)C(=O)N[C@@H](CCCCN)C(N)=O [FPLTWLKWWKWKK]
Acinetobacter baumannii
  MIC: 16.9 µM (≈ 31.2 µg/mL)
[1]
  MIC: 16.9 µM (≈ 31.2 µg/mL)
[19]
  MIC: 8.45 µM (≈ 15.6 µg/mL)
Klebsiella pneumoniae
  MIC: 8.66 µM (≈ 16 µg/mL)
[13]
  MIC: 33.8 µM (≈ 62.5 µg/mL)
[20]
  MIC: 8.45 µM (≈ 15.6 µg/mL)

## CC[C@H](C)[C@H](NC(=O)[C@H](CCC(=O)O)NC(=O)[C@H](CC(N)=O)NC(=O)[C@H](CCCCN)NC(=O)[C@H](CC(C)C)NC(=O)[C@H](CCCCN)NC(=O)[C@H](CCCCN)NC(=O)[C@H](CCCN=C(N)N)NC(=O)[C@@H](NC(=O)[C@H](CCCCN)NC(=O)[C@H](CCC(=O)O)NC(=O)[C@H](CCCCN)NC(=O)[C@H](Cc1c[nH]c2ccccc12)NC(=O)[C@H](C)N)[C@@H](C)CC)C(=O)N[C@@H](CCCCN)C(=O)N[C@@H](CCCCN)C(=O)N[C@@H](CCCCN)C(=O)NCC(=O)N[C@@H](CCCN=C(N)N)C(=O)N[C@@H](CCCCN)C(=O)N[C@@H](C)C(=O)N[C@H](C(=O)N[C@H](C(=O)N[C@@H](C)C(=O)N[C@@H](Cc1c[nH]c2ccccc12)C(=O)O)[C@@H](C)CC)C(C)C [AWKEKIRKKLKNEIKKKGRKAVIAW]
[21]
  MIC: 5.24 µM (≈ 16 µg/mL)
[22]
  MIC: 2.62 µM (≈ 8 µg/mL)
[23]
  MIC: ≥ 42 µM
[24]
  MIC: ≥ 42 µM
[25]
  MIC: ≥ 42 µM
[26]
  MIC: 2.62 µM (≈ 8 µg/mL)
Klebsiella pneumoniae M6
  MIC: ≥ 42 µM
[27]
  MIC: ≥ 42 µM
[28]
  MIC: ≥ 42 µM
[16]
  MIC: > 42 µM
[29]
  MIC: 0.164 µM (≈ 0.5 µg/mL)
Staphylococcus aureus 15
  MIC: ≥ 42 µM
[30]
  MIC: 5.24 µM (≈ 16 µg/mL)
[31]
  MIC: 0.164 µM (≈ 0.5 µg/mL)

From DBAASP
